This note sets out measurements from publication PMC11480295, “Hypecotumines A-D, new isoquinoline alkaloids with potential PCSK9 inhibition activity from Hypecoum erectum L” (Natural Products and Bioprospecting, 2024).

Sequence of PCSK9 (Q8NBP7 31-152): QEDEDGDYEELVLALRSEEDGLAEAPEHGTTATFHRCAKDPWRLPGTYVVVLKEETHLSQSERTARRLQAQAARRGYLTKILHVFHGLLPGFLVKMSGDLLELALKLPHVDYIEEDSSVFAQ
Sequence of PCSK9 (Q8NBP7 153-692): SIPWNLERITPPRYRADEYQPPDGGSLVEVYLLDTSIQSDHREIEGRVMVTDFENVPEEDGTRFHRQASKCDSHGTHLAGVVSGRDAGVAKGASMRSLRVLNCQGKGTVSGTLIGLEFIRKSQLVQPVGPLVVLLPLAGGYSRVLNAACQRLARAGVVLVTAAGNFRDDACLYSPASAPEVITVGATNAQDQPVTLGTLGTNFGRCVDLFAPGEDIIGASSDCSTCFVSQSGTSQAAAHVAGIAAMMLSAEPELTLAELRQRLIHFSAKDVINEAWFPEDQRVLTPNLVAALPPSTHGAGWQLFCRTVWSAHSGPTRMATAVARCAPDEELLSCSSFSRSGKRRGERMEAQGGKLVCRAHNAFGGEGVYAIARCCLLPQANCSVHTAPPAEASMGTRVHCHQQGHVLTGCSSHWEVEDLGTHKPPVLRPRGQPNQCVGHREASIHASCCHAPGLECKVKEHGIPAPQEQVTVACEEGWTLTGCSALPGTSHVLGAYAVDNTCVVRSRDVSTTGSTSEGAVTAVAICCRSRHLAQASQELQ

This assay addresses PCSK9 (Homo sapiens, UniProt Q8NBP7). Put plainly: SPR (Biacore T200, PCSK9 immobilized on CM5 chip). The class given is binding.
In the case of `C=C(C1=[N+](C)CCc2cc(OC)c(OC)cc21)c1ccc(OC)c(O)c1C(=O)[O-]` [compound 2, Hypecotumine B], binding was put at a Kd of 248 µM.

On to `C=C(C1=[N+](C)CCc2cc(OC)c(OC)cc21)c1ccc2c(c1C(=O)[O-])OCO2` [compound 3, Hypecotumine C], for which binding was put at a Kd of 95.1 µM.

As to `C=C(C1=[N+](C)CCc2cc3c(cc21)OCO3)c1ccc(OC)c(O)c1C(=O)[O-]` [compound 1, Hypecotumine A], binding was put at a Kd of 306 µM.

As for `C=C(C1=[N+](C)CCc2cc3c(cc21)OCO3)c1ccc2c(c1C(=O)[O-])OCO2` [compound 4, Hypecotumine D], the Kd (usually the equilibrium constant for the complex coming apart) came out at 59.9 µM.
